# Columns and labels:
# FAN1-USP7 = experiment: in situ proximity ligation assay (PLA), FAN1-USP7 association; assay type: cell-based, human; conditions: HeLa cells, MMC 150 ng/ml, 24 h
# Procedure: HeLa parental and FAN1 KO cells were grown in the absence or presence of MMC (150 ng/ml) for 24 hours. Cells were pre-extracted with CSK buffer containing 0.5% of Triton™ X-100 (Sigma–Aldrich) for 5 min on ice and fixed in 4% formaldehyde in PBS (w/v) for 20 min at room temperature (RT). Coverslips were then washed with PBS and stored overnight at 4 °C. In situ PLA was performed using Duolink PLA technology (Sigma-Aldrich) according to the manufacturer’s instructions. In brief, coverslips were blocked for 30 min at 37 °C with blocking solution and then incubated with the respective primary antibodies for 2 h at 37 °C. Coverslips were washed three times for 5 min in Wash Buffer A (0.01 M Tris, 0.15 M NaCl, and 0.05% Tween 20). Then, Duolink anti-Mouse PLUS and anti-Rabbit MINUS PLA probes were coupled to the primary antibodies for 1 h at 37 °C. After three wash steps in Wash buffer A for 5 min, the PLA probes were ligated for 30 min at 37 °C. Coverslips were then washed three times for 5 min in Wash buffer A. Amplification using the “Duolink In Situ Detection Reagents FarRed” (Sigma-Aldrich) was performed at 37 °C for 100 min. […] Lastly, the coverslips were mounted using Vectashield Mounting Media (Vector Laboratories) containing DAPI, sealed and imaged on a Leica DMI 6000 fluorescence microscope at x63 magnification. […]
# FAN1 protein level = experiment: immunoblot of FAN1 levels after MMC, HeLa; assay type: cell-based, human; conditions: MMC 1 μg/ml, 48 h
# Procedure: Fig. 4 USP7 facilitates FAN1 localization and function during ICL repair. A QIBC analysis of chromatin-bound GFP-FAN1 foci in U2OS^eGFP-FAN1 cells transfected with either non-targeting (Ctrl), USP7 or FANCD2 siRNA oligos. 24 h later, cells were either mock-treated (–) or treated (+) with MMC (150 ng/ml) for 24 h. Color-coded scatterplots (from grey to green) indicate the number of GFP-FAN1 foci per nucleus from one biological replicate. Mean (solid line) and standard deviation (SD) from the mean (dashed lines) are indicated. Representative images are shown (bottom). Scale bar: 10 μm. This experiment was repeated three times. B QIBC analysis of endogenous FANCD2 foci in U2OS^eGFP-FAN1 cells transfected with either non-targeting (Ctrl) or the indicated siRNA oligos. 24 h later, cells were either mock-treated (−) or treated (+) with MMC (150 ng/ml) for 24 h. Color-coded scatterplots (from grey to blue) indicate the number of FANCD2 foci per nucleus from one biological replicate. Mean (solid line) and standard deviation (SD) from the mean (dashed lines) are indicated. […] 24 h later, cells were either mock-treated (−) or treated (+) with MMC (1 μg/ml) for 48 h and whole-cell lysates were analysed by immunoblotting. […] Relative FAN1, cleaved PARP-1 or cleaved Caspase-3 protein levels were determined by quantification of the respective band intensity (normalized to GAPDH) with the ImageJ software. […]
structure (smiles),measurement,setting,value
"CO[C@@]12[C@H](COC(N)=O)C3=C(C(=O)C(C)=C(N)C3=O)N1C[C@@H]1N[C@@H]12 [MMC, Mitomycin C]","PLA signals, FAN1-USP7 association",FAN1-USP7,significantly increased in numbers
same,FAN1 levels in response to MMC,FAN1 protein level,upregulated
same,MMC-induced FAN1 upregulation with USP7 depletion,FAN1 protein level; USP7 siRNA,abrogated by USP7 depletion
